Patent publication US7812036B2, “Androgens” (N.V. Organon, priority 2004, dated 2010)

Each compound was assayed against T1, human androgen receptor (Homo sapiens, UniProt P10275) (assay: Androgenic activity (potency) in vitro bioassay, CHO-AR-pMMTV-LUC 1G12-A5-CA cells, luciferase reporter). Details: CHO cells stably transfected with human androgen receptor and MMTV-luciferase reporter; in the presence of 0.1 μmol/l onapristone; potencies expressed as percentage of DHT activity (maximal efficacy with 100 nmol/l DHT set as 100%).
T1 construct: expressed in transfected cells; host or cells: Chinese hamster ovary (CHO) cells, line CHO-AR-pMMTV-LUC 1G12-A5-CA
T1 sequence (P10275 1-920): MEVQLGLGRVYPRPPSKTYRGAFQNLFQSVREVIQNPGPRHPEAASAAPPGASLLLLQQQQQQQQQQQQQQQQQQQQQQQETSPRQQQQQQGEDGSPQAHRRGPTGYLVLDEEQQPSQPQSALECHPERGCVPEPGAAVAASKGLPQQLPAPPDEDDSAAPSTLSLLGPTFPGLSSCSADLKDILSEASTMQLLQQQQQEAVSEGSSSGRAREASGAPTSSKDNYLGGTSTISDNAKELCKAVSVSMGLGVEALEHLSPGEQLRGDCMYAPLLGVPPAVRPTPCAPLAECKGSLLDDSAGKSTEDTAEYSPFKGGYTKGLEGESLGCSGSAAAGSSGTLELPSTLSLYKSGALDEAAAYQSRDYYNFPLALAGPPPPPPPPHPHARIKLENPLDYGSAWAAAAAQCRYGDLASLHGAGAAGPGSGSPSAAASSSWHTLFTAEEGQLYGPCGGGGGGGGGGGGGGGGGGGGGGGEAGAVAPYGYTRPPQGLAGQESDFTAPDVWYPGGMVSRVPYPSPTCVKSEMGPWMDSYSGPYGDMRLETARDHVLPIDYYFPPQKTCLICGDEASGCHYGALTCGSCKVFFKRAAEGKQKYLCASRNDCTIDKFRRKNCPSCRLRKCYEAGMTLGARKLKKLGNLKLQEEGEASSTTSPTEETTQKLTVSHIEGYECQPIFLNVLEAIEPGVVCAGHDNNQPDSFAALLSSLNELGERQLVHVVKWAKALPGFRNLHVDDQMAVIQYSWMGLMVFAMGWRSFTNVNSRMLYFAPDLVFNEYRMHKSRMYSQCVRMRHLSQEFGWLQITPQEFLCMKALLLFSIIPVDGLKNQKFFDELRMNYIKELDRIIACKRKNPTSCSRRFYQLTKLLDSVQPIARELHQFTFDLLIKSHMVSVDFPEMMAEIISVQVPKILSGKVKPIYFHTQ
Assay type: cell-based
Experimental: The androgenic activity (potency) of the compounds of the invention was determined in an in vitro bioassay of Chinese hamster ovary (CHO) cells stably transfected with the human androgen receptor expression plasmid and a reporter plasmid in which the MMTV promoter is linked to the luciferase reporter gene. The cell line CHO-AR-pMMTV-LUC 1G12-A5-CA is described in Schoonen et al. (J. Steroid Biochem. Molec. Biol. 2002; 74: 213-222). The androgen receptor activity of compounds was determined in the presence of 0.1 μmol/l onapristone. The maximal efficacy in the presence of 100 nmol/1 DHT was set as 100%. The potencies are expressed as percentage of DHT activity.

Compound | Potency (%)
CCNc1ccc2c(Sc3ccccc3[N+](=O)[O-])cn(Cc3ccccn3)c2c1 [Example 19d, Ethyl-[3-(2-nitro-phenylsulfanyl)-1-pyridin-2-ylmethyl-1H-indol-6-yl]-amine] | 6.7
CN(C)c1ccc2c(Sc3ccccc3[N+](=O)[O-])cn(Cc3cccnc3)c2c1 [Example 19e, Dimethyl-[3-(2-nitro-phenylsulfanyl)-1-pyridin-3-ylmethyl-1H-indol-6-yl]-amine] | 2.6
N#CCNc1ccc2c(Sc3ccccc3[N+](=O)[O-])cn(Cc3cc(F)cc(F)c3)c2c1 [Example 20, [1-(3,5-Difluoro-benzyl)-3-(2-nitro-phenylsulfanyl)-1H-indol-6-ylamino]-acetonitrile] | 40.2
CC(=O)CNc1ccc2c(Sc3ccccc3[N+](=O)[O-])cn(Cc3cc(F)cc(F)c3)c2c1 [Example 21a, 1-[1-(3,5-Difluoro-benzyl)-3-(2-nitro-phenylsulfanyl)-1H-indol-6-ylamino]-propan-2-one] | 7.2
O=[N+]([O-])c1ccccc1Sc1cn(Cc2cc(F)cc(F)c2)c2cc(NCCO)ccc12 [Example 21b, 2-[1-(3,5-Difluoro-benzyl)-3-(2-nitro-phenylsulfanyl)-1H-indol-6-ylamino]-ethanol] | 7.9
COCCNc1ccc2c(Sc3ccccc3[N+](=O)[O-])cn(Cc3cc(F)cc(F)c3)c2c1 [Example 21c] | 11.4
N#CCNc1ccc2c(Sc3ccccc3[N+](=O)[O-])cn(Cc3ccccn3)c2c1 [Example 21d, [3-(2-Nitro-phenylsulfanyl)-1-pyridin-2-ylmethyl-1H-indol-6-ylamino]-acetonitrile] | 6.7
COCCNc1ccc2c(Sc3ccccc3[N+](=O)[O-])cn(Cc3ccccn3)c2c1 [Example 21e, (2-Methoxy-ethyl)-[3-(2-nitro-phenylsulfanyl)-1-pyridin-2-ylmethyl-1H-indol-6-yl]-amine] | 8.3
COCCNc1ccc2c(Sc3ccccc3[N+](=O)[O-])cn(Cc3cccnc3)c2c1 [Example 21f, (2-Methoxy-ethyl)-[3-(2-nitro-phenylsulfanyl)-1-pyridin-3-ylmethyl-1H-indol-6-yl]-amine] | 20.9
N#CCNc1ccc2c(Sc3ccccc3C#N)cn(Cc3cc(F)cc(F)c3)c2c1 [Example 21g, 2-[6-(Cyanomethyl-amino)-1-(3,5-difluoro-benzyl)-1H-indol-3-ylsulfanyl]-benzonitrile] | 9.2
N#Cc1ccccc1Sc1cn(Cc2cc(F)cc(F)c2)c2cc(NCCO)ccc12 [Example 21h] | 2.9
COCCNc1ccc2c(Sc3ccccc3C#N)cn(Cc3cc(F)cc(F)c3)c2c1 [Example 21i] | 6.0
N#CCNc1ccc2c(Sc3ccccc3[N+](=O)[O-])cn(Cc3cccnc3)c2c1 [Example 21j, [3-(2-Nitro-phenylsulfanyl)-1-pyridin-3-ylmethyl-1H-indol-6-ylamino]-acetonitrile] | 1.0
O=[N+]([O-])c1ccccc1Sc1cn(Cc2cc(F)cc(F)c2)c2cc(NCC(F)(F)F)ccc12 [Example 21k, [1 (3,5-Difluoro-benzyl)-3-(2-nitro-phenylsulfanyl)-1H-indol-6-yl]-(2,2,2-trifluoroethyl)-amine] | 0.6
CCCNc1ccc2c(Sc3ccccc3[N+](=O)[O-])cn(Cc3cc(F)cc(F)c3)c2c1 [Example 22a, [1-(3,5-Difluoro-benzyl)-3-(2-nitro-phenylsulfanyl)-1H-indol-6-yl]-propyl-amine] | 2.4
C#CCNc1ccc2c(Sc3ccccc3[N+](=O)[O-])cn(Cc3cc(F)cc(F)c3)c2c1 [Example 22b, [1-(3,5-Difluoro-benzyl)-3-(2-nitro-phenylsulfanyl)-1H-indol-6-yl]-prop-2-ynyl-amine] | 27.1
C=C(C)CNc1ccc2c(Sc3ccccc3[N+](=O)[O-])cn(Cc3cc(F)cc(F)c3)c2c1 [Example 22c] | 1.2
O=[N+]([O-])c1ccccc1Sc1cn(Cc2cc(F)cc(F)c2)c2cc(NCC3CC3)ccc12 [Example 22d] | 0.9
COC(=O)CNc1ccc2c(Sc3ccccc3[N+](=O)[O-])cn(Cc3cc(F)cc(F)c3)c2c1 [Example 22e] | 4.0
Methyl-[1-(3-meth 1-benzyl-3-(2-nitro-phenylsulfanyl)-1H-indol-6-yl]-amine [Example 5o] | 1.6
